Results from patent US20220402872A1, “PHOTOPOLYMERIZABLE ANTIBACTERIAL MONOMER” (UNIVERSITA' DEGLI STUDI DI TRIESTE, priority 2019, published 2022).
Blank lines part the entries; values can stand above or below the compound they belong to.

What was measured:
Type in all cases: cell-based
[1] = tested on: S. Mitis (ATCC 49456); test: Determination of the minimum inhibitory concentration (MIC); details: Streptococcus mitis, ATCC49456
Description: (§1) A colony of bacterium taken from agar plate is inoculated in Brain Hearth Infusion medium (BHI) and grown overnight at 37° C. The next day, the bacteria are diluted in fresh medium containing the phenol red indicator, up to a density of 10^6 bacteria/mL.
(§2) A stock solution of 2 mg/mL of compound is prepared in BHI medium containing phenol red.
(§3) In a 96-well plate, the compound stock solution is diluted serially (the concentration is halved at each step) to obtain the following final concentrations after addition of the bacteria suspension: 1 mg/mL; 0.5 mg/mL; 0.25 mg/mL; 0.125 mg/mL; 0.065 mg/mL; 0.032 mg/mL; 0.016 mg/mL; 0.008 mg/mL; 0.004 mg/mL; 0.002 mg/mL; 0.001 mg/mL. A compound-free medium is used as a growth control. A volume of bacterial suspension equal to 0.5*10^6 bacteria/mL is added to each well containing the compound and the control. The dish is incubated at 37° C. for 24 hours. Bacterial growth in each well is detected by the phenol red, which turns from red to yellow following acidification of the medium induced by bacterial metabolism. The lowest concentration of the compound causing no evident color change corresponds to the MIC.
(§4) The compounds according to Examples 1, 3, 5, 6, and 7 were tested on bacterial strains different from S. mutans with the same methods described above, obtaining the MIC and MBC values reported in Table 2.

[2] = tested on: S. Aureus (ATCC 25923); test: as above; details: Staphylococcus aureus, ATCC25923
Description: as §1, §2, §3, §4

[3] = tested on: S. Sanguis (ATCC 10556); test: as above
Description: as §1, §2, §3, §4

[4] = tested on: E. coli (ATCC25922); test: as above; details: Escherichia coli
Description: as §1, §2, §3, §4

[5] = tested on: S. mutans (ATCC 25175); test: Determination of the minimum bactericidal concentration (MBC); details: Streptococcus mutans, ATCC25175; against S. Mutans
Description: (§5) A 20 mg/mL compound stock solution in BHI medium is prepared. In a 96-well plate, the compound solution is diluted serially (the concentration is halved at each step) to obtain the following final concentrations after addition of the bacteria suspension: 10 mg/mL; 5 mg/mL; 2.5 mg/mL; 1.25 mg/mL; 0.625 mg/mL; 0.31 mg/mL; 0.15 mg/mL; 0.08 mg/mL; 0.04 mg/mL; 0.02 mg/mL. Wells containing a mixture of penicillin and streptomycin antibiotics are used as a positive control. Compound-free medium is used as a growth control. A volume of bacterial suspension equal to 0.5*10^6 bacteria/mL is added to each well containing the compound and the controls. The dish is incubated at 37° C. for 24 hours. The lowest compound concentration at which no turbidity of the culture medium is evident is defined as MIC. For the calculation of MBC, aliquots equal to 50 μL are taken from the wells showing evident no turbidity of the medium and are plated on BHI agar plates for 48 hours. […] Bacterial suspensions taken from the positive control (growth medium only) and the negative control (growth medium with Ampicilin 100 μg/mL) are also seeded.
(§6) In order to test the antibacterial properties of the compounds prepared in Examples 1-8, on colonies of S. mutans (ATCC 25175), a bacterium commonly found in the human oral cavity, a test was set up to determine the minimum inhibitory concentration (MIC) and the minimum bactericidal concentration (MBC) according to the “Determination of minimum inhibitory concentration (MIC)” methods and “Determination of minimum bactericidal concentration (MBC)” described above.

[6] = tested on: S. Mitis (ATCC 49456); test: as above
Description: as §5, §4

[7] = tested on: S. Aureus (ATCC 25923); test: as above
Description: as §5, §4

[8] = tested on: S. Sanguis (ATCC 10556); test: as above
Description: as §5, §4

[9] = tested on: E. coli (ATCC25922); test: as above
Description: as §5, §4

[10] = tested on: S. mutans (ATCC 25175); test: Determination of the minimum inhibitory concentration (MIC); details: Streptococcus mutans, ATCC25175; against S. Mutans
Description: as §1, §2, §3, §6

[11] = tested on: bacteria grown on agar; test: Determination of bacterial inhibition - agar diffusion test of primer formulations; details: for zone of inhibition at 1 % strength: 1% by weight of compound; for zone of inhibition at 5 % strength: 5% by weight of compound; for zone of inhibition at 10 % strength: 10% by weight of compound
Description: A test adapted from a commonly used method for determining the sensitivity of a bacterial strain to antibiotics in solution, known as Kirby-Bauer antibiotic testing or disc diffusion antibiotic sensitivity testing was used (Brown D F, Kothari D (1975), “Comparison of antibiotic discs from different sources”, J. Clin. Pathol. 28 (10): 779-83. Doi: 10.1136 /jcp.28.10.779). The test performed involves the use of discs imbued with a known concentration of the substance under examination that are placed on a layer of bacteria grown on agar. The diffusion of the bactericidal molecule from the disk into the agar causes the inhibition of bacterial growth in the area surrounding the disk itself where the molecule has spread with the formation of what are called zones of growth inhibition. The diameter of these inhibition zones (transparent circular regions in comparison to the bacterial film) is proportional to the antibacterial efficacy of the molecule to its concentration and to its diffusion ability in the medium.
The bactericidal properties of the compounds according to Examples 1, 3, 5, 6 and 7 were tested in various primer-type preparations, using the method “Bacterial inhibition determination-Agar diffusion test” described above. The disk soaked in the tested primer formulation without addition of compounds according to Examples 1, 3, 5, 6 and 7 was used as a negative reference.
For the tests, the following primer-type formulations were used, identified by the following codes: […]

Structure (SMILES): C=C(C)C(=O)NCCC[N+](C)(C)CCCCCCCCCCCC[N+](C)(C)CCCNC(=O)C(=C)C.[Br-].[Br-] [Example 3]
- MIC [1]: 620 mg/L
- MIC [2]: 625 mg/L
- MIC [3]: 620 mg/L
- MIC [4]: 1250 mg/L
- MBC [5]: 310 mg/L
- MCB [6]: 0.62 mg/mL
- MCB [7]: 1.25 mg/mL
- MCB [8]: 0.62 mg/mL
- MCB [9]: 1.25 mg/mL
- MIC [10]: 150 mg/L
- zone of inhibition at 1 % strength ([11]; primer L1A): 8 mm
- zone of inhibition at 5 % strength ([11]; primer L1A): 11 mm
- zone of inhibition at 10 % strength ([11]; primer L1A): 13 mm
- zone of inhibition at 1 % strength ([11]; primer L1B): 0 mm
- zone of inhibition at 5 % strength ([11]; primer L1B): 7 mm
- zone of inhibition at 10 % strength ([11]; primer L1B): 10 mm
- zone of inhibition at 1 % strength ([11]; primer L2A): 6 mm
- zone of inhibition at 5 % strength ([11]; primer L2A): 7 mm
- zone of inhibition at 10 % strength ([11]; primer L2A): 10 mm
- zone of inhibition at 1 % strength ([11]; primer L2B): 6 mm
- zone of inhibition at 5 % strength ([11]; primer L2B): 7 mm
- zone of inhibition at 10 % strength ([11]; primer L2B): 10 mm
- zone of inhibition at 1 % strength ([11]; primer R5A): 6 mm
- zone of inhibition at 5 % strength ([11]; primer R5A): 6 mm
- zone of inhibition at 10 % strength ([11]; primer R5A): 8 mm
- zone of inhibition at 1 % strength ([11]; primer R5B): 0 mm
- zone of inhibition at 5 % strength ([11]; primer R5B): 0 mm
- zone of inhibition at 10 % strength ([11]; primer R5B): 8 mm

Structure (SMILES): C=C(C)C(=O)NCCC[N+](C)(C)CCCCCCCCCCCC[N+](C)(C)CCCNC(=O)C(=C)C.[F-].[F-] [Example 4]
- MBC [5]: 156 mg/L
- MIC [10]: 156 mg/L

Structure (SMILES): C=C(C)C(=O)OCC[N+](C)(C)CCCCCCCCCCCC[N+](C)(C)CCOC(=O)C(=C)C [Example 2]
- MBC [5]: 313 mg/L
- MIC [10]: 156 mg/L

- MIC [10]: 2500 mg/L
Structure (SMILES): C=C(C)C(=O)OCC[N+](C)(C)Cc1ccc(C[N+](C)(C)CCOC(=O)C(=C)C)cc1.[Br-].[Br-] [Example 8]
- MBC [5]: 2500 mg/L
